Experimental findings from patent US9850225B2, “Compounds useful as immunomodulators” (BRISTOL-MYERS SQUIBB COMPANY, priority 2014, dated 2017) are described below.

Broadly, the pIC50 is the negative decadic logarithm of the IC50, by convention in mol/L.

Structures are written as SMILES. pIC50: −log10 of the molar value.

PD-1/PD-L1 interaction (PD-1-Ig / PD-L1-His), sequence (Q9NZQ7 other isoform, or with tags, fused parts or gaps): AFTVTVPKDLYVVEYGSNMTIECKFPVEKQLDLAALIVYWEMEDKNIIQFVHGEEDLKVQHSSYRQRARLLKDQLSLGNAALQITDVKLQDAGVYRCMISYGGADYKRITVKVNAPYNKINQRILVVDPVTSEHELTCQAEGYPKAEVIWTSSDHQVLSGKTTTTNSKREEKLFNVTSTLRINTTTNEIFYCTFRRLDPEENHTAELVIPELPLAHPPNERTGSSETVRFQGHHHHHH

In one experiment the target is PD-1/PD-L1 interaction (PD-1-Ig / PD-L1-His) (Homo sapiens (Human), UniProt Q9NZQ7). In words: PD-1/PD-L1 Homogenous Time-Resolved Fluorescence (HTRF) binding assay. As to conditions: PD-1/PD-L1 HTRF binding assay; numeric value; read-out: Range or IC50. In a few lines:
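Human PD-L1-His (10 nM final) was pre-incubated with inhibitor for 15 min, then PD-1-Ig (20 nM final) was added for a further 15 min in dPBS with 0.1% BSA and 0.05% Tween-20. Binding was detected by HTRF using Eu-cryptate anti-Ig (1 nM) and APC anti-His (20 nM).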
A general note: Time-resolved FRET reads energy transfer from a long-lived donor to a nearby acceptor.
On to `CC(=O)NCCNCc1ccc(OCc2cccc(-c3ccccc3)c2C)cc1OCc1ccccc1[N+](=O)[O-]` [Example 1057, N-(2-((4-((2-methyl-[1,1′-biphenyl]-3-yl)methoxy)-2-((2-nitrobenzyl)oxy)benzyl)amino)ethyl)acetamide], for which the pIC50 was 6.01.

For `Cc1c(COc2cc(OCc3cncc(C#N)c3)c(CN[C@H](CC(N)=O)C(=O)O)cc2Cl)cccc1-c1ccc2c(c1)OCCO2` [Example 3024, (R)-4-amino-2-((5-chloro-2-((5-cyanopyridin-3-yl)methoxy)-4-((3-(2,3-dihydrobenzo[b][1,4]dioxin-6-yl)-2-methylbenzyl)oxy)benzyl)amino)-4-oxobutanoic acid], the pIC50 was 8.26.

Still in this experiment, the particulars now being: PD-1/PD-L1 HTRF binding assay; value given as range class; read-out: Range or IC50.
As for `Cc1c(COc2cc(OCc3ccnc(C(=O)N(C)C)c3)c(CN[C@@](C)(CO)C(=O)O)cc2Cl)cccc1-c1ccc2c(c1)OCCO2` [Example 3018, (S)-2-((5-chloro-4-((3-(2,3-dihydrobenzo[b][1,4]dioxin-6-yl)-2-methylbenzyl)oxy)-2-((2-(dimethylcarbamoyl)pyridin-4-yl)methoxy)benzyl)amino)-3-hydroxy-2-methylpropanoic acid], the pIC50 is 8.00 to 9.22.

`Cc1c(COc2cc(OCc3cncc(Br)c3)c(CN[C@](C)(CO)C(=O)O)cc2Cl)cccc1-c1ccc2c(c1)OCCO2` [Example 1254, (R)-2-(2-((5-bromopyridin-3-yl)methoxy)-5-chloro-4-(3-(2,3-dihydrobenzo[b][1,4]dioxin-6-yl)-2-methylbenzyloxy)benzylamino)-3-hydroxy-2-methylpropanoic acid]: the pIC50 was 8.00 to 9.22.

`Cc1c(COc2cc(OCc3cncc(C#N)c3)c(CNCCO)cc2Br)cccc1-c1ccc2c(c1)OCCO2` [Example 1322, 5-((4-bromo-5-(3-(2,3-dihydrobenzo[b][1,4]dioxin-6-yl)-2-methylbenzyloxy)-2-((2-hydroxyethylamino)methyl)phenoxy)methyl)nicotinonitrile]: the pIC50 is 8.00 to 9.22.

On to `Cc1c(COc2ccc(CN[C@@](C)(CO)C(=O)O)c(OCc3cccc(C#N)c3)c2)cccc1-c1ccc2c(c1)OCCO2` [Example 1128, (S)-2-((2-((3-cyanobenzyl)oxy)-4-((3-(2,3-dihydrobenzo[b][1,4]dioxin-6-yl)-2-methylbenzyl)oxy)benzyl)amino)-3-hydroxy-2-methylpropanoic acid], for which the pIC50 was 8.00 to 9.22.

Regarding `COC(=O)c1cccc(COc2cc(OCc3cccc(-c4ccccc4)c3C)ccc2CNCCNC(C)=O)c1` [Example 1034, methyl 3-((2-(((2-acetamidoethyl)amino)methyl)-5-((2-methyl-[1,1′-biphenyl]-3-yl)methoxy)phenoxy)methyl)benzoate], the negative logarithm of the IC50 (pIC50) was 4.70 to 7.00.

For the compound `Cc1c(COc2cc(OCc3cccc(C#N)c3)c(CNCC(O)CN3CCOCC3)cc2Cl)cccc1-c1ccc2c(c1)OCCO2` (stereo not drawn) [Example 1212, 3-((4-chloro-5-((3-(2,3-dihydrobenzo[b][1,4]dioxin-6-yl)-2-methylbenzyl)oxy)-2-(((2-hydroxy-3-morpholinopropyl)amino)methyl)phenoxy)methyl)benzonitrile], the pIC50 is 8.00 to 9.22.

In the case of `CC(=O)NCCNCc1ccc(OCc2cccc(-c3ccccc3)c2C)cc1OCC(F)(F)F` [Example 1026, N-(2-((4-((2-methyl-[1,1′-biphenyl]-3-yl)methoxy)-2-(2,2,2-trifluoroethoxy)benzyl)amino)ethyl)acetamide], the pIC50 is 4.70 to 7.00.

Take `Cc1c(COc2cc(OCc3cccc(C#N)c3)c(CN[C@@H](Cc3cccc(C#N)c3)C(=O)O)cc2Cl)cccc1-c1ccc2c(c1)OCCO2` [Example 1217, (S)-2-((5-chloro-2-((3-cyanobenzyl)oxy)-4-((3-(2,3-dihydrobenzo[b][1,4]dioxin-6-yl)-2-methylbenzyl)oxy)benzyl)amino)-3-(3-cyanophenyl)propanoic acid]: the pIC50 is 7.00 to 8.00.

With `Cc1cc(OCc2cccc(-c3ccc4c(c3)OCCO4)c2C)cc(OCc2cncc(C#N)c2)c1CN[C@H](CO)C(=O)O` [Example 1007, (R)-2-(2-((5-cyanopyridin-3-yl)methoxy)-4-(3-(2,3-dihydrobenzo[b][1,4]dioxin-6-yl)-2-methylbenzyloxy)-6-methylbenzylamino)-3-hydroxypropanoic acid], the pIC50 is 8.00 to 9.22.

As to `CC(=O)NCCNCc1ccc(OCc2cccc(-c3ccccc3)c2C)cc1OCc1cccc(-n2cccc2)c1` [Example 1112, N-(2-((2-((3-(1H-pyrrol-1-yl)benzyl)oxy)-4-((2-methyl-[1,1′-biphenyl]-3-yl)methoxy)benzyl)amino)ethyl)acetamide], the pIC50 was 4.70 to 7.00.

Consider `Cc1c(COc2cc(OCc3cccc(C#N)c3)c(CN[C@H](C(=O)O)[C@H](C)O)cc2Cl)cccc1-c1ccc2c(c1)OCCO2` [Example 1189, (2S,3S)-2-((5-chloro-2-((3-cyanobenzyl)oxy)-4-((3-(2,3-dihydrobenzo[b][1,4]dioxin-6-yl)-2-methylbenzyl)oxy)benzyl)amino)-3-hydroxybutanoic acid], for which the pIC50 is 8.00 to 9.22.

Turning to `CC(=O)NCCNCc1cc(Br)c(OCc2cccc(-c3ccc4c(c3)OCCO4)c2C#N)cc1OCc1cccc(C#N)c1` [Example 1315, N-(2-((5-bromo-4-((2-cyano-3-(2,3-dihydrobenzo[b][1,4]dioxin-6-yl)benzyl)oxy)-2-((3-cyanobenzyl)oxy)benzyl)amino)ethyl)acetamide], the pIC50 was 8.00 to 9.22.

With `CC(=O)NCCNCc1ccc(OCc2cccc(-c3ccccc3)c2C)cc1OCc1ccc(C)cc1` [Example 1047, N-(2-((4-((2-methyl-[1,1′-biphenyl]-3-yl)methoxy)-2-((4-methylbenzyl)oxy)benzyl)amino)ethyl)acetamide], the pIC50 was 4.70 to 7.00.

Take `CC(=O)NCCNCc1ccc(OCc2cccc(-c3ccccc3)c2C)cc1OCc1ccc(Cl)c(Cl)c1` [Example 1069, N-(2-((2-((3,4-dichlorobenzyl)oxy)-4-((2-methyl-[1,1′-biphenyl]-3-yl)methoxy)benzyl)amino)ethyl)acetamide]: the pIC50 was 4.70 to 7.00.

In the case of `CC(=O)NCCNCc1ccc(OCc2cccc(-c3ccc4c(c3)OCCO4)c2Cl)cc1OCc1cccc(C#N)c1` [Example 1150, N-(2-(4-(2-chloro-3-(2,3-dihydrobenzo[b][1,4]dioxin-6-yl)benzyloxy)-2-(3-cyanobenzyloxy)benzylamino)ethyl)acetamide], the negative-log IC50 (pIC50) was 7.00 to 8.00.

For the compound `Cc1c(COc2cc(OCc3cncc(C#N)c3)c(CN[C@@](C)(CO)C(=O)O)cc2Cl)cccc1-c1ccc2c(c1)OCCO2` [Example 1252, (S)-2-(5-chloro-2-((5-cyanopyridin-3-yl)methoxy)-4-(3-(2,3-dihydrobenzo[b][1,4]dioxin-6-yl)-2-methylbenzyloxy)benzylamino)-3-hydroxy-2-methylpropanoic acid], the pIC50 was 8.00 to 9.22.

Consider `CC(=O)NCCNCc1ccc(OCc2cccc(-c3ccccc3)c2C)cc1OCc1ccc(OC(F)F)cc1` [Example 1088, N-(2-((2-((4-(difluoromethoxy)benzyl)oxy)-4-((2-methyl-[1,1′-biphenyl]-3-yl)methoxy)benzyl)amino)ethyl)acetamide], for which the pIC50 is 4.70 to 7.00.

Consider `Cc1c(COc2cc(OCc3cncc(C#N)c3)c(CN3CCCC[C@H]3C(=O)NS(=O)(=O)C(C)C)cc2Cl)cccc1-c1ccc2c(c1)OCCO2` [Example 1260, (S)-1-(5-chloro-2-((5-cyanopyridin-3-yl)methoxy)-4-((3-(2,3-dihydrobenzo[b][1,4]dioxin-6-yl)-2-methylbenzyl)oxy)benzyl)-N-(isopropylsulfonyl)piperidine-2-carboxamide], for which the pIC50 is 8.00 to 9.22.

Consider `Cc1c(COc2ccc(CN[C@H](CO)CC(=O)O)c(OCc3cccc(C#N)c3)c2)cccc1-c1ccccc1` [Example 1021, (S)-3-((2-((3-cyanobenzyl)oxy)-4-((2-methyl-[1,1′-biphenyl]-3-yl)methoxy)benzyl)amino)-4-hydroxybutanoic acid], for which the pIC50 was 8.00 to 9.22.

For `Cc1c(COc2ccc(CN3CCCC[C@H]3C(=O)O)c(OCc3cncc(C#N)c3)c2)cccc1-c1ccccc1` [Example 1329, (S)-1-(2-((5-cyanopyridin-3-yl)methoxy)-4-((2-methyl-[1,1′-biphenyl]-3-yl)methoxy)benzyl)piperidine-2-carboxylic acid], the pIC50 was 8.00 to 9.22.

On to `Cc1c(COc2cc(OCc3cccc(C#N)c3)c(CN[C@H](Cc3cscn3)C(=O)O)cc2Cl)cccc1-c1ccc2c(c1)OCCO2` [Example 1206, (R)-2-((5-chloro-2-((3-cyanobenzyl)oxy)-4-((3-(2,3-dihydrobenzo[b][1,4]dioxin-6-yl)-2-methylbenzyl)oxy)benzyl)amino)-3-(thiazol-4-yl)propanoic acid], for which the pIC50 is 8.00 to 9.22.

As for `CC(=O)NCCNCc1ccc(OCc2cccc(-c3ccccc3)c2C)cc1OCc1ccccc1C` [Example 1045, N-(2-((4-((2-methyl-[1,1′-biphenyl]-3-yl)methoxy)-2-((2-methylbenzyl)oxy)benzyl)amino)ethyl)acetamide], the pIC50 is 4.70 to 7.00.

Regarding `CC(=O)NCCNCc1ccc(OCc2cccc(-c3ccccc3)c2C)cc1OCc1ccccc1C#N` [Example 1055, N-(2-((2-((2-cyanobenzyl)oxy)-4-((2-methyl-[1,1′-biphenyl]-3-yl)methoxy)benzyl)amino)ethyl)acetamide], the pIC50 is 4.70 to 7.00.

As to `Cc1c(COc2cc(OCc3cncc(C#N)c3)c(CN[C@@H](Cc3ccccn3)C(=O)O)cc2Cl)cccc1-c1ccc2c(c1)OCCO2` [Example 2009, (S)-2-((5-chloro-2-((5-cyanopyridin-3-yl)methoxy)-4-((3-(2,3-dihydrobenzo[b][1,4]dioxin-6-yl)-2-methylbenzyl)oxy)benzyl)amino)-3-(pyridin-2-yl)propanoic acid], the pIC50 is 8.00 to 9.22.

For `Cc1c(COc2ccc(CN[C@@](C)(CO)C(=O)O)c(OCc3cccc(C#N)c3)c2Cl)cccc1-c1ccc2c(c1)OCCO2` [Example 1238, (S)-2-((3-chloro-2-((3-cyanobenzyl)oxy)-4-((3-(2,3-dihydrobenzo[b][1,4]dioxin-6-yl)-2-methylbenzyl)oxy)benzyl)amino)-3-hydroxy-2-methylpropanoic acid], the pIC50 is 4.70 to 7.00.
